Test results published in ChEMBL document CHEMBL5108024, “New C-6 functionalized quinoline NorA inhibitors strongly synergize with ciprofloxacin against planktonic and biofilm growing resistant Staphylococcus aureus strains” (Eur J Med Chem, 2022).
≈ marks a conversion by molar mass, not a printed value. Where “and” joins values, the source holds several entries; their conditions need not be identical. Equal values may be shown once.

Experiments:
Staphylococcus aureus [1] = assay: Synergistic antibiofilm activity against Staphylococcus aureus 1199B overexpressing norA and harboring A116E grlA mutant assessed as biofilm eradication by measuring ciprofloxacin MBEC at 3.13 ug/ml incubated for 24 hrs by Calgary biofilm device assay; type: functional; conditions: dose 3.13 µg/ml
Staphylococcus aureus [2] = assay: Synergistic antibiofilm activity against wild type Staphylococcus aureus 1199 assessed as biofilm eradication by measuring ciprofloxacin MBEC at 3.13 ug/ml incubated for 24 hrs by Calgary biofilm device assay; type: functional; conditions: dose 3.13 µg/ml
Staphylococcus aureus [3] = assay: Antibacterial activity against ciprofloxacin-susceptible wild type Staphylococcus aureus 1199 assessed as inhibition of bacterial growth by broth microdilution method; type: functional
[4] = Cytotoxicity against human THP-1 cells assessed as cell viability incubated for 24 hrs by MTT assay; type: toxicity, cell-based
Staphylococcus aureus [5] = assay: Antibacterial activity against Staphylococcus aureus K2378 harbouring norA promoting and coding region assessed as inhibition of bacterial growth by broth microdilution method; type: functional
Staphylococcus aureus [6] = assay: Synergistic antibacterial activity against Staphylococcus aureus 1199B overexpressing norA and harboring A116E grlA mutant assessed as four fold minimum potentiating concentration incubated in presence of ciprofloxacin by checkerboard assay; type: functional
Staphylococcus aureus [7] = assay: Antibacterial activity against norA deleted Staphylococcus aureus K1902 assessed as inhibition of bacterial growth by broth microdilution method; type: functional
[8] = Cytotoxicity against human THP-1 cells assessed as cell viability at 12.5 ug/ml incubated for 24 hrs by MTT assay relative to control; type: toxicity, cell-based; conditions: at 12.5 µg/mL, read-out: Activity
Staphylococcus aureus [9] = assay: Inhibition of EtBr efflux in ciprofloxacin-resistant Staphylococcus aureus 1199B overexpressing norA and harboring A116E grlA mutant assessed as reduction in fluorescence intensity at 50 uM measured for 5 mins by microplate reader analysis relative to control; type: functional
Staphylococcus aureus [10] = assay: Inhibition of EtBr efflux in ciprofloxacin-resistant Staphylococcus aureus 1199B overexpressing norA and harboring A116E grlA mutant assessed as reduction in fluorescence intensity at 10 uM measured for 5 mins by microplate reader analysis relative to control; type: functional
Staphylococcus aureus [11] = assay: Synergistic antibacterial activity against Staphylococcus aureus K2378 overexpressing norA assessed as fold reduction in ciprofloxacin MIC at 0.2 to 12.5 ug/ml by checkerboard assay; type: functional; conditions: dose 0.2-12.5 µg/ml
[12] = Cytotoxicity against human THP-1 cells assessed as cell viability at 3.13 ug/ml incubated for 24 hrs by MTT assay relative to control; type: toxicity, cell-based; conditions: at 3.13 µg/mL, read-out: Activity
[13] = Cytotoxicity against human A549 cells assessed as cell viability at 3.13 ug/ml incubated for 24 hrs by MTT assay relative to control; type: toxicity, cell-based; conditions: at 3.13 µg/mL, read-out: Activity
[14] = Selectivity index, ratio of CC50 for cytotoxicity against human THP-1 cells to MPC for synergistic antibacterial activity against Staphylococcus aureus 1199B overexpressing norA and harboring A116E grlA mutant assessed as four fold minimum potentiating concentration; type: toxicity, cell-based
Staphylococcus aureus [15] = assay: Synergistic antibacterial activity against ciprofloxacin-resistant Staphylococcus aureus 1199B overexpressing norA and harboring A116E grlA mutant assessed as fold reduction in ciprofloxacin MIC at 6.25 uM by broth microdilution method; type: functional
Staphylococcus aureus [16] = assay: Antibacterial activity against ciprofloxacin-resistant Staphylococcus aureus 1199B overexpressing norA and harboring A116E grlA mutant assessed as inhibition of bacterial growth by broth microdilution method; type: functional
[17] = Cytotoxicity against human A549 cells assessed as cell viability at 12.5 ug/ml incubated for 24 hrs by MTT assay relative to control; type: toxicity, cell-based; conditions: at 12.5 µg/mL, read-out: Activity
Staphylococcus aureus [18] = assay: Synergistic antibacterial activity against Staphylococcus aureus 1199B overexpressing norA and harboring A116E grlA mutant assessed as eight fold minimum potentiating concentration incubated in presence of ciprofloxacin by checkerboard assay; type: functional
Staphylococcus aureus [19] = assay: (§1) Synergistic bactericidal activity against Staphylococcus aureus 1199B overexpressing norA and harboring A116E grlA mutant assessed as reduction in bacterial count by measuring log reduction in colony forming count per ml at 6.25 ug/ml incubated for 6 hrs in presence of ciprofloxacin at 0.25 to 1 times MIC by time kill assay; type: functional; conditions: dose 6.25 µg/ml
Staphylococcus aureus [20] = assay: Potentiation of ciprofloxacin-induced antibacterial activity against Staphylococcus aureus 1199B overexpressing norA and harboring A116E grlA mutant assessed as post-antibiotic effect by measuring log reduction in colony forming unit per ml at 6.25 ug/ml preincubated for 1 hr followed by compound washout and measured after 5 hrs; type: functional; conditions: dose 6.25 µg/ml
Staphylococcus aureus [21] = assay: Synergistic antibiofilm activity against norA deleted Staphylococcus aureus K1902 assessed as biofilm eradication by measuring ciprofloxacin MBEC at 3.13 ug/ml incubated for 24 hrs by Calgary biofilm device assay; type: functional; conditions: dose 3.13 µg/ml
Staphylococcus aureus [22] = assay: Synergistic antibiofilm activity against Staphylococcus aureus 1199B overexpressing norA and harboring A116E grlA mutant assessed as biofilm eradication by measuring fold reduction in ciprofloxacin MBEC at 3.13 ug/ml incubated for 24 hrs by Calgary biofilm device assay; type: functional; conditions: dose 3.13 µg/ml
Staphylococcus aureus [23] = assay: as §1, with “for 4” for “for 6”; type: functional; conditions: dose 6.25 µg/ml
Staphylococcus aureus [24] = assay: Synergistic antibiofilm activity against wild type Staphylococcus aureus 1199 assessed as biofilm eradication by measuring fold reduction in ciprofloxacin MBEC at 3.13 ug/ml incubated for 24 hrs by Calgary biofilm device assay; type: functional; conditions: dose 3.13 µg/ml
Staphylococcus aureus [25] = assay: Potentiation of ciprofloxacin-induced antibacterial activity against Staphylococcus aureus 1199B overexpressing norA and harboring A116E grlA mutant assessed as time for post-antibiotic effect at 6.25 ug/ml preincubated for 1 hr followed by compound washout and measured after 5 hrs; type: functional; conditions: dose 6.25 µg/ml
Staphylococcus aureus [26] = assay: Antibiofilm activity against Staphylococcus aureus 1199B overexpressing norA and harboring A116E grlA mutant assessed as biofilm eradication incubated for 24 hrs by Calgary biofilm device assay; type: functional
Staphylococcus aureus [27] = assay: Antibiofilm activity against norA deleted Staphylococcus aureus K1902 assessed as biofilm eradication incubated for 24 hrs by Calgary biofilm device assay; type: functional
Staphylococcus aureus [28] = assay: Antibiofilm activity against wild type Staphylococcus aureus 1199 assessed as biofilm eradication incubated for 24 hrs by Calgary biofilm device assay; type: functional

Q: For `CCCOc1ccc(-c2cc(OCCN3CCCCCC3)c3cc(OCCC)ccc3n2)cc1`, which MBEC (Staphylococcus aureus [1]) is on record?
A: 2.5 µg/mL

Q: And the MBEC (Staphylococcus aureus [2])?
A: 0.07 µg/mL

Q: What about the MIC (Staphylococcus aureus [3]) of the same compound?
A: > 50 µg/mL

Q: And the CC50 at 24 h [4]?
A: > 3.13 µg/mL

Q: And the MIC (Staphylococcus aureus [5])?
A: > 50 µg/mL

Q: What about the MPC (Staphylococcus aureus [6]) of the same compound?
A: 0.2 µg/mL

Q: What about the MIC (Staphylococcus aureus [7]) of the same compound?
A: > 50 µg/mL

Q: And the viability at 24 h, 12.5 ug/ml [8]?
A: 38.4%

Q: What about the inhibition (Staphylococcus aureus [9]) of the same compound?
A: 82.3%

Q: What about the inhibition (Staphylococcus aureus [10]) of the same compound?
A: 78.8%

Q: What about the “fold change (FC)” value (Staphylococcus aureus [11]) of the same compound?
A: 4

Q: What about the viability at 24 h, 3.13 ug/ml [12] of the same compound?
A: 70.3%

Q: What about the viability at 24 h, 3.13 ug/ml [13] of the same compound?
A: 100%

Q: What about the selectivity ratio [14] of the same compound?
A: > 15

Q: And the “fold change (FC)” value (Staphylococcus aureus [15])?
A: 8

Q: What about the MIC (Staphylococcus aureus [16]) of the same compound?
A: > 50 µg/mL and > 540 µM

Q: What about the viability at 24 h, 12.5 ug/ml [17] of the same compound?
A: 84.5%

Q: With `CCCOc1ccc(-c2cc(OCCN(CC)CC)c3cc(Oc4ccccc4)ccc3n2)cc1` as the compound, how does the MPC (Staphylococcus aureus [18]) read?
A: 1.56 µg/mL

Q: What about the MBEC (Staphylococcus aureus [1]) of the same compound?
A: 1.25 µg/mL

Q: What about the MBEC (Staphylococcus aureus [2]) of the same compound?
A: 0.07 µg/mL

Q: And the “log(activity)” value (Staphylococcus aureus [19])?
A: 2

Q: And the MIC (Staphylococcus aureus [3])?
A: > 50 µg/mL

Q: And the CC50 at 24 h [4]?
A: > 3.13 µg/mL

Q: And the “log(activity)” value (Staphylococcus aureus [20])?
A: 1

Q: What about the MIC (Staphylococcus aureus [5]) of the same compound?
A: 25 µg/mL (≈ 53.1 µM)

Q: And the MBEC (Staphylococcus aureus [21])?
A: 40 µg/mL

Q: And the MIC (Staphylococcus aureus [7])?
A: 25 µg/mL (≈ 53.1 µM)

Q: And the viability at 24 h, 12.5 ug/ml [8]?
A: 8.2%

Q: What about the inhibition (Staphylococcus aureus [9]) of the same compound?
A: 80.9%

Q: What about the inhibition (Staphylococcus aureus [10]) of the same compound?
A: 76.1%

Q: What about the “fold change (FC)” value (Staphylococcus aureus [11]) of the same compound?
A: 4

Q: What about the viability at 24 h, 3.13 ug/ml [12] of the same compound?
A: 77.3%

Q: And the viability at 24 h, 3.13 ug/ml [13]?
A: 80.1%

Q: What about the “fold change (FC)” value (Staphylococcus aureus [22]) of the same compound?
A: 512

Q: What about the “log(activity)” value (Staphylococcus aureus [23]) of the same compound?
A: 3

Q: What about the “fold change (FC)” value (Staphylococcus aureus [24]) of the same compound?
A: 286

Q: And the “fold change (FC)” value (Staphylococcus aureus [15])?
A: >=8

Q: And the MIC (Staphylococcus aureus [16])?
A: > 50 µg/mL and > 531 µM

Q: And the Time (Staphylococcus aureus [25])?
A: 1.2 h

Q: And the viability at 24 h, 12.5 ug/ml [17]?
A: 84.8%

Q: With `O=C(O)c1cn(C2CC2)c2cc(N3CCNCC3)c(F)cc2c1=O` [CIPROFLOXACIN] as the compound, how does the MBEC (Staphylococcus aureus [26]) read?
A: 640 µg/mL

Q: What about the MBEC (Staphylococcus aureus [27]) of the same compound?
A: 40 µg/mL

Q: And the MIC (Staphylococcus aureus [3])?
A: 0.08 µg/mL (≈ 0.241 µM)

Q: And the MIC (Staphylococcus aureus [5])?
A: 0.63 µg/mL (≈ 1.9 µM)

Q: And the MBEC (Staphylococcus aureus [28])?
A: 20 µg/mL

Q: And the MIC (Staphylococcus aureus [7])?
A: 0.15 µg/mL (≈ 0.453 µM)

Q: What about the MIC (Staphylococcus aureus [16]) of the same compound?
A: 10 µg/mL (≈ 30.2 µM)
